24 compounds from patent US20220089612A1, “HETEROCYCLIC COMPOUNDS AS PRMT5 INHIBITORS” (ANGEX PHARMACEUTICAL, INC., priority 2017, published 2022) can be followed below.

The structures appear in SMILES notation.

For the assay, the target named is PRMT5:MEP50 (Homo sapiens, UniProt O14744). The experiment in a line: PRMT5:MEP50 Flashplate Assay. Type of assay: biochemical. Conditions: PRMT5:MEP50 inhibitory activity; 3H-SAM, 2 h at room temperature, top concentration 10 μM. As for the experimental part:
PRMT5:MEP50 Flashplate Assay:
Ten-point curves of inhibitor compounds were made using serial threefold dilutions in DMSO (the final top concentration of compound was 10 μM, 1% DMSO). Reaction mixture consisting of 50 mM Tris-HCl (pH 8.5), 0.002% Tween 20, 0.005% BSA (Bovine Serum Albumin), 1 mM TCEP, and 1% DMSO. Substrates are freshly prepared in reaction buffer. PRMT5:MEP50 was then added into substrate solution and mixed gently. Inhibitor compound was then added and incubated for 30 min at room temperature. ^3H-SAM was added to initiate the reaction. Reactions were incubated for 2 h at room temperature and quenched with 0.5 mM SAM (S-adenosyl-L-Methionine) in assay buffer. An aliquot of the reaction mix was transferred to a streptavidin-coated 384-well FlashPlate (PerkinElmer). After an incubation time of 1 h, the plate was washed and then read on a TopCount (PerkinElmer) to measure the amount of tritium incorporated into the peptide substrate. IC50 was calculated using conventional curve-fitting method.

PRMT5:MEP50, sequence (O14744 whole entry, species assumed): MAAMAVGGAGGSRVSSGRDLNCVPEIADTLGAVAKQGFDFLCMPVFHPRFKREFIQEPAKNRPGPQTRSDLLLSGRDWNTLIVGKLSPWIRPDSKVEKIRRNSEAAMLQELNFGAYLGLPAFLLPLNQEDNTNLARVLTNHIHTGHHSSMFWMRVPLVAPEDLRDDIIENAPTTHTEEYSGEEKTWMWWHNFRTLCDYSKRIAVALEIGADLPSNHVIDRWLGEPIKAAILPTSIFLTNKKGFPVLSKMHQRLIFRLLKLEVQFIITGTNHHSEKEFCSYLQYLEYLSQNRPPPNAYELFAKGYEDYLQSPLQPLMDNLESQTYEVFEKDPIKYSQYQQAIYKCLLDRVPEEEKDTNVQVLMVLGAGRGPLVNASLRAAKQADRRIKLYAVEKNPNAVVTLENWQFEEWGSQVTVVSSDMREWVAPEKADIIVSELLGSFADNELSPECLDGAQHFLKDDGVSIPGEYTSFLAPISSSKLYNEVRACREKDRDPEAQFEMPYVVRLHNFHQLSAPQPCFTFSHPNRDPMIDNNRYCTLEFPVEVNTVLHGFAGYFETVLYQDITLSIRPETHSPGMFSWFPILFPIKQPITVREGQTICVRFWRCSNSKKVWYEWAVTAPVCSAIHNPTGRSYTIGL
PRMT5:MEP50, sequence (Q9BQA1 whole entry partner, species assumed): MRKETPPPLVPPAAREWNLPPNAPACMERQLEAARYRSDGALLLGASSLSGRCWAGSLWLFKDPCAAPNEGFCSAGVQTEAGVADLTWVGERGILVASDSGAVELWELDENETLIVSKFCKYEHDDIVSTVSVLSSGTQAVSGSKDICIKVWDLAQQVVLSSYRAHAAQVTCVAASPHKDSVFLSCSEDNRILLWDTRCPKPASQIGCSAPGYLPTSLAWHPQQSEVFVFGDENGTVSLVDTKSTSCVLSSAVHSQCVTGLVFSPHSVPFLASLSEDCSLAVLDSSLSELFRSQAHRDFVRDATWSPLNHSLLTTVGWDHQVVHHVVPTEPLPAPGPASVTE

As to `Nc1ncnc2c1ccn2[C@@H]1C[C@H](CCc2ccc3cc4cn[nH]c4nc3c2)[C@@H](O)[C@H]1O` [Compound 1-12, (1S,2R,3S,5R)-3-(2-(1H-pyrazolo[3,4-b]quinolin-7-yl)ethyl)-5-(4-amino-7H-pyrrolo-[2,3-d]pyrimidin-7-yl)cyclopentane-1,2-diol], the concentration for half-maximal inhibition (IC50) was in the range of 1 to 100 nM. Take `Nc1ncnc2c1ccn2[C@@H]1C[C@H](CCc2ccc3cc4nc[nH]c4nc3c2)[C@@H](O)[C@H]1O` [Compound 1-18, (1S,2R,3S,5R)-3-(2-(3H-imidazo[4,5-b]quinolin-6-yl)ethyl)-5-(4-amino-7H-pyrrolo[2,3-d]pyrimidin-7-yl)cyclopentane-1,2-diol]: the half-inhibitory concentration (IC50) was < 1 nM. As for `Nc1ncnc2c1ccn2[C@@H]1C[C@H](CCc2ccc3cc4c(nc3c2)N[C@@H](C2CC2)C4)[C@@H](O)[C@H]1O` [Compound 1-23, (1R,2S,3R,5S)-3-(4-amino-7H-pyrrolo[2,3-d]pyrimidin-7-yl)-5-(2-((R)-2-cyclopropyl-2,3-dihydro-1H-pyrrolo[2,3-b]quinolin-7-yl)ethyl)cyclopentane-1,2-diol], the figure is < 1 nM.

As to `Nc1ncnc2c1ccn2[C@@H]1C[C@H](CCc2ccc3cc4c(nc3c2)N[C@H](CC2CC2)C4)[C@@H](O)[C@H]1O` [Compound 1-29, (1R,2S,3R,5S)-3-(4-amino-7H-pyrrolo[2,3-d]pyrimidin-7-yl)-5-(2-((R)-2-(cyclopropylmethyl)-2,3-dihydro-1H-pyrrolo[2,3-b]quinolin-7-yl)ethyl)cyclopentane-1,2-diol], the concentration for half-maximal inhibition (IC50) fell in the range of 1 to 100 nM.

In the case of `Nc1ncnc2c1ccn2[C@@H]1C[C@H](CCc2ccc3cc4c(nc3c2)NOCC4)[C@@H](O)[C@H]1O` [Compound 1-13, (1R,2S,3R,5S)-3-(4-amino-7H-pyrrolo[2,3-d]pyrimidin-7-yl)-5-(2-(3,4-dihydro-1H-[1,2]oxazino[3,4-b]quinolin-8-yl)ethyl)cyclopentane-1,2-diol], the IC50 was < 1 nM. For `Nc1ncnc2c1ccn2[C@@H]1C[C@H](CCc2ccc3cc4nn[nH]c4nc3c2)[C@@H](O)[C@H]1O` [Compound 1-19, (1S,2R,3S,5R)-3-(2-(3H-[1,2,3]triazolo[4,5-b]quinolin-6-yl)ethyl)-5-(4-amino-7H-pyrrolo[2,3-d]pyrimidin-7-yl)cyclopentane-1,2-diol], the IC50 is 1 to 100 nM.

As for `CC1(C)Cc2cc3ccc(CC[C@H]4C[C@@H](n5ccc6c(N)ncnc65)[C@H](O)[C@@H]4O)cc3nc2N1` [Compound 1-30, (1R,2S,3R,5S)-3-(4-amino-7H-pyrrolo[2,3-d]pyrimidin-7-yl)-5-(2-(2,2-dimethyl-2,3-dihydro-1H-pyrrolo[2,3-b]quinolin-7-yl)ethyl)cyclopentane-1,2-diol], the IC50 was < 1 nM. As for `Nc1ncnc2c1ccn2[C@@H]1C[C@H](CCc2ccc3cc4c(nc3c2)NCCC4)[C@@H](O)[C@H]1O` [Compound 1-35, (1R,2S,3R,5S)-3-(4-amino-7H-pyrrolo[2,3-d]pyrimidin-7-yl)-5-(2-(1,2,3,4-tetrahydrobenzo[b][1,8]naphthyridin-8-yl)ethyl)cyclopentane-1,2-diol], the figure is < 1 nM. As for `Nc1ncnc2c1ccn2[C@@H]1C[C@H](CCc2ccc3cc4cc[nH]c4nc3c2)[C@@H](O)[C@H]1O` [Compound 4-3, (1S,2R,3S,5R)-3-(2-(1H-pyrrolo[2,3-b]quinolin-7-yl)ethyl)-5-(4-amino-7H-pyrrolo[2,3-d]pyrimidin-7-yl)cyclopentane-1,2-diol], the figure is 1 to 100 nM. Then `Nc1ncnc2c1ccn2[C@@H]1C[C@H](CCc2ccc3cc4c(nc3c2)NOCCC4)[C@@H](O)[C@H]1O` [Compound 1-17, (1R,2S,3R,5S)-3-(4-amino-7H-pyrrolo[2,3-d]pyrimidin-7-yl)-5-(2-(1,3,4,5-tetrahydro-[1,2]oxazepino[3,4-b]quinolin-9-yl)ethyl)cyclopentane-1,2-diol], with 1 to 100 nM; and `CC(C)[C@@H]1Cc2cc3ccc(CC[C@H]4C[C@@H](n5ccc6c(N)ncnc65)[C@H](O)[C@@H]4O)cc3nc2N1` [Compound 1-25, (1R,2S,3R,5S)-3-(4-amino-7H-pyrrolo[2,3-d]pyrimidin-7-yl)-5-(2-((S)-2-isopropyl-2,3-dihydro-1H-pyrrolo[2,3-b]quinolin-7-yl)ethyl)cyclopentane-1,2-diol], with < 1 nM. As to `Nc1ncnc2c1ccn2[C@@H]1C[C@H](CCc2ccc3cc4c(nc3c2)NC2(CC2)C4)[C@@H](O)[C@H]1O` [Compound 1-31, (1R,2S,3R,5S)-3-(4-amino-7H-pyrrolo[2,3-d]pyrimidin-7-yl)-5-(2-(1′,3′-dihydrospiro[cyclopropane-1,2′-pyrrolo[2,3-b]quinolin]-7′-yl)ethyl)cyclopentane-1,2-diol], the 50% inhibitory concentration (IC50) was < 1 nM. Then `CC1(C)CNc2nc3cc(CC[C@H]4C[C@@H](n5ccc6c(N)ncnc65)[C@H](O)[C@@H]4O)ccc3cc21` [Compound 2-3, (1R,2S,3R,5S)-3-(4-amino-7H-pyrrolo[2,3-d]pyrimidin-7-yl)-5-(2-(3,3-dimethyl-2,3-dihydro-1H-pyrrolo[2,3-b]quinolin-7-yl)ethyl)cyclopentane-1,2-diol], with < 1 nM. Then `Nc1ncnc2c1ccn2[C@@H]1O[C@H](CCc2ccc3cc4c(nc3c2)NCCC4)[C@@H](O)[C@H]1O` [Compound 3-13, (2R,3R,4S,5R)-2-(4-amino-7H-pyrrolo[2,3-d]pyrimidin-7-yl)-5-(2-(1,2,3,4-tetrahydrobenzo[b][1,8]naphthyridin-8-yl)ethyl)tetrahydrofuran-3,4-diol], with < 1 nM; and `C[C@@H]1Cc2cc3ccc(CC[C@H]4C[C@@H](n5ccc6c(N)ncnc65)[C@H](O)[C@@H]4O)cc3nc2N1` [Compound 1-21, (1R,2S,3R,5S)-3-(4-amino-7H-pyrrolo[2,3-d]pyrimidin-7-yl)-5-(2-((R)-2-methyl-2,3-dihydro-1H-pyrrolo[2,3-b]quinolin-7-yl)ethyl)cyclopentane-1,2-diol], with < 1 nM; and `Nc1ncnc2c1ccn2[C@@H]1C[C@H](CCc2ccc3cc4c(nc3c2)NCC4)[C@@H](O)[C@H]1O` [Compound 1-7, (1R,2S,3R,5S)-3-(4-amino-7H-pyrrolo[2,3-d]pyrimidin-7-yl)-5-(2-(2,3-dihydro-1H-pyrrolo[2,3-b]quinolin-7-yl)ethyl)cyclopentane-1,2-diol], with < 1 nM. As for `C=CC[C@@H]1Cc2cc3ccc(CC[C@H]4C[C@@H](n5ccc6c(N)ncnc65)[C@H](O)[C@@H]4O)cc3nc2N1` [Compound 1-27, (1S,2R,3S,5R)-3-(2-((R)-2-allyl-2,3-dihydro-1H-pyrrolo[2,3-b]quinolin-7-yl)ethyl)-5-(4-amino-7H-pyrrolo[2,3-d]pyrimidin-7-yl)cyclopentane-1,2-diol], the figure is < 1 nM; as for `CC[C@@H]1Cc2cc3ccc(CC[C@H]4C[C@@H](n5ccc6c(N)ncnc65)[C@H](O)[C@@H]4O)cc3nc2N1` [Compound 1-24, (1R,2S,3R,5S)-3-(4-amino-7H-pyrrolo[2,3-d]pyrimidin-7-yl)-5-(2-((R)-2-ethyl-2,3-dihydro-1H-pyrrolo[2,3-b]quinolin-7-yl)ethyl)cyclopentane-1,2-diol], < 1 nM; as for `CC(C)(C)[C@@H]1Cc2cc3ccc(CC[C@H]4C[C@@H](n5ccc6c(N)ncnc65)[C@H](O)[C@@H]4O)cc3nc2N1` [Compound 1-26, (1R,2S,3R,5S)-3-(4-amino-7H-pyrrolo[2,3-d]pyrimidin-7-yl)-5-(2-((S)-2-(tert-butyl)-2,3-dihydro-1H-pyrrolo[2,3-b]quinolin-7-yl)ethyl)cyclopentane-1,2-diol], < 1 nM. Take `Nc1ncnc2c1ccn2[C@@H]1O[C@H](CCc2ccc3cc4cn[nH]c4nc3c2)[C@@H](O)[C@H]1O` [Compound 3-12, (2R,3S,4R,5R)-2-(2-(1H-pyrazolo[3,4-b]quinolin-7-yl)ethyl)-5-(4-amino-7H-pyrrolo[2,3-d]pyrimidin-7-yl)tetrahydrofuran-3,4-diol]: the half-inhibitory concentration (IC50) was in the range of 1 to 100 nM. As for `Nc1ncnc2c1ccn2[C@@H]1C[C@H](CCc2ccc3cc4c(=O)n(-c5ccccc5)[nH]c4nc3c2)[C@@H](O)[C@H]1O` [Compound 1-33, 7-(2-((1S,2R,3S,4R)-4-(4-amino-7H-pyrrolo[2,3-d]pyrimidin-7-yl)-2,3-dihydroxycyclopentyl)ethyl)-2-phenyl-1,2-dihydro-3H-pyrazolo[3,4-b]quinolin-3-one], the figure is > 100 nM.

For `Nc1ncnc2c1ccn2[C@@H]1C[C@H](CCc2ccc3cc4c(=O)[nH][nH]c4nc3c2)[C@@H](O)[C@H]1O` [Compound 1-32, 7-(2-((1S,2R,3S,4R)-4-(4-amino-7H-pyrrolo[2,3-d]pyrimidin-7-yl)-2,3-dihydroxycyclopentyl)ethyl)-1,2-dihydro-3H-pyrazolo[3,4-b]quinolin-3-one], the half-inhibitory concentration (IC50) was 1 to 100 nM.

As to `Nc1ncnc2c1ccn2[C@@H]1C[C@H](CCc2ccc3cc4c(nc3c2)N[C@H](c2ccccc2)C4)[C@@H](O)[C@H]1O` [Compound 1-28, (1R,2S,3R,5S)-3-(4-amino-7H-pyrrolo[2,3-d]pyrimidin-7-yl)-5-(2-((S)-2-phenyl-2,3-dihydro-1H-pyrrolo[2,3-b]quinolin-7-yl)ethyl)cyclopentane-1,2-diol], the 50% inhibitory concentration (IC50) lay within 1 to 100 nM. On to `Nc1ncnc2c1ccn2[C@@H]1C[C@H](CCc2ccc3c(c2)nc(N)n2ccnc32)[C@@H](O)[C@H]1O` [Compound 1-9, (1R,2S,3R,5S)-3-(4-amino-7H-pyrrolo[2,3-d]pyrimidin-7-yl)-5-(2-(5-aminoimidazo-[1,2-c]quinazolin-8-yl)ethyl)cyclopentane-1,2-diol], for which the IC50 was < 1 nM.
